Source: publication PMC6253949, “The Inhibitory Action of Kohamaic Acid A Derivatives on Mammalian DNA Polymerase β” (Molecules, 2008)

Columns and labels:
Type in all cases: biochemical
Human DNA polymerase ι = target: T1, Human DNA polymerase ι (Homo sapiens, UniProt Q9UNA4); assay: DNA polymerase assay, human pol ι
T1 construct: His6 (C); made in house; host or cells: SF9 insect cells (baculovirus)
T1 sequence (Q9UNA4 1-740): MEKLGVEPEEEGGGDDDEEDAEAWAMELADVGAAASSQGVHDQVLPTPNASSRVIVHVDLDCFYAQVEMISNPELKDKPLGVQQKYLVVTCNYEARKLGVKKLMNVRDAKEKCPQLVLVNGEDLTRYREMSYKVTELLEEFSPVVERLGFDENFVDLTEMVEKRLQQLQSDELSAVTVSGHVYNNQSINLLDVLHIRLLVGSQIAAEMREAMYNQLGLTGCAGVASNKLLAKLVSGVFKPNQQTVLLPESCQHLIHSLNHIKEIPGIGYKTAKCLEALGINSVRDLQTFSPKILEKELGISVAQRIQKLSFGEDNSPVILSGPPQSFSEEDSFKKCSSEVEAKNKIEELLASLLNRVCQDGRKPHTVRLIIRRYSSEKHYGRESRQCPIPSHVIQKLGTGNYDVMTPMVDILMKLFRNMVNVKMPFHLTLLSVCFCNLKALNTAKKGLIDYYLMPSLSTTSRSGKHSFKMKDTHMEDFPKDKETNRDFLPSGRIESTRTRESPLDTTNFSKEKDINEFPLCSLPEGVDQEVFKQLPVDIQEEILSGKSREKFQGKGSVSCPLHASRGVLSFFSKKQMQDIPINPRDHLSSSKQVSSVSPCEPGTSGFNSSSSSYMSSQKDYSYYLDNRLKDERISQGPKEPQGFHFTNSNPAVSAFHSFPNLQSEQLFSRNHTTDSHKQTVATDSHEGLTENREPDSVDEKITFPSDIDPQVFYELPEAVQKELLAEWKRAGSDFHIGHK
Excerpt: (§1) Pol α was purified from calf thymus by immuno-affinity column chromatography as described by Tamai et al.. Recombinant rat pol β was purified from E. coli JMpβ5 as described by Date et al.. The human pol γ catalytic gene was cloned into pFastBac. Histidine-tagged enzyme was expressed using the BAC-TO-BAC HT Baculovirus Expression System according to the supplier's manual (LIFE TECHNOLOGIES, MD, USA) and purified using ProBoundresin (Invitrogen Japan, Tokyo, Japan). Human pols δ and ε were purified by the nuclear fractionation of human peripheral blood cancer cells (Molt-4) using the second subunit of pols δ and ε-conjugated affinity column chromatography, respectively. Recombinant human pols η and ι tagged with His6 at their C-terminal were expressed in SF9 insect cells using the baculovirus expression system, and were purified as described previously. A truncated form of pol κ (i.e., hDINB1DC) with 6 x His-tags attached at the C-terminal was overproduced using the BAC-to-BAC Baculovirus Expression System kit (GIBCO BRL, MD, USA) and purified as described previously. […]
(§2) For pols, poly(dA)/oligo(dT)12-18 (A/T = 2/1) and dTTP were used as the DNA template-primer and nucleotide (i.e., dNTP) substrate, respectively. […] Activity without the inhibitor was considered 100%, and the remaining activity at each concentration of the inhibitor was determined relative to this value. […]

Human DNA polymerase κ = target: T2, Human DNA polymerase κ (Homo sapiens, UniProt Q9UBT6); assay: DNA polymerase assay, human pol κ
T2 construct: A truncated form of pol κ (i.e., hDINB1DC); 6xHis (C); made in house; host or cells: baculovirus expression system (insect cells)
T2 sequence (Q9UBT6 1-560 limits assumed): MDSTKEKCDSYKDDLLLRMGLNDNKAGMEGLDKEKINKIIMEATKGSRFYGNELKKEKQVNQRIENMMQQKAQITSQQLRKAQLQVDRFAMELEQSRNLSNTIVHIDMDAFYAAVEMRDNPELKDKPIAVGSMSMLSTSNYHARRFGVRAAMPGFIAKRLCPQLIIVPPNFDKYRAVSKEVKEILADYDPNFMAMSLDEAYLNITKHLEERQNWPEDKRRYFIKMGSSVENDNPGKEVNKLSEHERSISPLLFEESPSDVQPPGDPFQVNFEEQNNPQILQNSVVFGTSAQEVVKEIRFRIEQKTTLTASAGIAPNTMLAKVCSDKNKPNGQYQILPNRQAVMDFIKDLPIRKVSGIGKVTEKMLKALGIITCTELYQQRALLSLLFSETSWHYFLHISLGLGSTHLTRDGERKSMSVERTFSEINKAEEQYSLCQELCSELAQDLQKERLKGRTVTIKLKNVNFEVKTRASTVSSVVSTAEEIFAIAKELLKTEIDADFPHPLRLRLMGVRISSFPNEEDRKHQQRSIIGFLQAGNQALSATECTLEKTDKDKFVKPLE
Excerpt: as §1, §2

T7 RNA polymerase = target: T3, T7 RNA polymerase (Escherichia phage T7, UniProt P00573); assay: T7 RNA polymerase assay
T3 construct: purchased Takara (Kyoto, Japan)
T3 sequence (P00573 whole entry): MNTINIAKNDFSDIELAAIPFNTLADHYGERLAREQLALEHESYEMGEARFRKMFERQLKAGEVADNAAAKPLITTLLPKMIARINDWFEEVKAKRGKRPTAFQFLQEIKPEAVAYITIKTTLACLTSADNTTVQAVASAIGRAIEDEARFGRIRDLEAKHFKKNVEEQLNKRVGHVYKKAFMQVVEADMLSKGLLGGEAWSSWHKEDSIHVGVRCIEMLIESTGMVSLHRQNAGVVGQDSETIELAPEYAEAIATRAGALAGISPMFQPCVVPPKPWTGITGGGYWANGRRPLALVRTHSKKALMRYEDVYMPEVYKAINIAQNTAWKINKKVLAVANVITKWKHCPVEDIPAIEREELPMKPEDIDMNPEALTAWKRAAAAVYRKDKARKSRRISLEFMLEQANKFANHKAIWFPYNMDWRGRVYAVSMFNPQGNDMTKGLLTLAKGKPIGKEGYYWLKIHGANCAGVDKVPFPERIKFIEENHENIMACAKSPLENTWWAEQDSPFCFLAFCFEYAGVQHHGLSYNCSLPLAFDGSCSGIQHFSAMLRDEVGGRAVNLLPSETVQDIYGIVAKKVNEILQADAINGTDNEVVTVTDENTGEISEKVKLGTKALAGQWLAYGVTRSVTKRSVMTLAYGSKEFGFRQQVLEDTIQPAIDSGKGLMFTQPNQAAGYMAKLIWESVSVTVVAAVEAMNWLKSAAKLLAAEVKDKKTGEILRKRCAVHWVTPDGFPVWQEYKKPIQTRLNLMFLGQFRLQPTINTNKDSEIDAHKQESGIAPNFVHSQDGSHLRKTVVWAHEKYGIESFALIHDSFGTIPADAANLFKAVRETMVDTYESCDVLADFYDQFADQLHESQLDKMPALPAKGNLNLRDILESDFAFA
Excerpt: as §1
The primase activity of calf pol α, the activities of T7 RNA polymerase, T4 polynucleotide kinase and bovine DNase I were measured in standard assays according to the manufacturer's specifications as described by Tamiya-Koizumi et al., Nakayama et al., Soltis et al., and Lu and Sakaguchi, respectively.

[1] = target: T4, E. coli DNA polymerase I (Klenow fragment) (Escherichia coli, UniProt P00582); assay: DNA polymerase assay, Klenow fragment
T4 construct: The Klenow fragment of pol I from E. coli; purchased Worthington Biochemical Corp. (Freehold, NJ, USA)
T4 sequence (P00582 324-928): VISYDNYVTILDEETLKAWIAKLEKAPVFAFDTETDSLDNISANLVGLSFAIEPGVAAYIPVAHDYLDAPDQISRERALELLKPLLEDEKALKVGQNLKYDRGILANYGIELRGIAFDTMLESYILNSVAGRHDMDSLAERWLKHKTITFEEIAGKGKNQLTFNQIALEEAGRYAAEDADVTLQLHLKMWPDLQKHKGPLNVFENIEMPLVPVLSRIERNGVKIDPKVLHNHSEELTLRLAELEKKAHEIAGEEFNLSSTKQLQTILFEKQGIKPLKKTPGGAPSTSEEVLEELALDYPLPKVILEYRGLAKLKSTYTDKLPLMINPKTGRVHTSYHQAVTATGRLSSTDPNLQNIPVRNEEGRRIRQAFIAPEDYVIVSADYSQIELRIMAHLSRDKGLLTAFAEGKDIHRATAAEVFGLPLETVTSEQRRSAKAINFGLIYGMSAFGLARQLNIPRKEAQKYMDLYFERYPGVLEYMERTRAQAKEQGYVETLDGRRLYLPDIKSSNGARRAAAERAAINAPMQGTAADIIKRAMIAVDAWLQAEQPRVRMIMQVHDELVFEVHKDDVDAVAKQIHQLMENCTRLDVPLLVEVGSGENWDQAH
Excerpt: as §1, §2

## CC1=CC[C@H]2C(C)(C)CCC[C@]2(C)[C@H]1CCCCCCCCCCCCCCCCC(=O)O (relative stereo) [compound 11, (1S*,4aS*,8aS*)-17-(1,4,4a,5,6,7,8,8a-octahydro-2,5,5,8a-tetramethylnaphthalen-1-yl)heptadecanoic acid]
Human DNA polymerase ι
  IC50: 7.84 ± 0.39 µM
Human DNA polymerase κ
  IC50: 7.2 ± 0.36 µM
T7 RNA polymerase
  Influence on T7 RNA polymerase activity: not influenced
[1]
  IC50: > 200 µM
